Test results published in patent publication US9670363B2, “Substituted anthraquinone dyes for cellular stains and enzyme detection” (Biotium, Inc., priority 2011, dated 2017).
Entries after “also recorded” stand apart in the source; their conditions may differ.

What was measured:
Format in all cases: cell-based
HeLa cells [1] = test: Staining of fixed and permeabilized cells; details: HeLa fixed with 4% paraformaldehyde, 0.5% Triton X-100; 3 μM DRAQ7 or 10 μM dye, 5 minutes, room temperature
Method: Adherent HeLa cells in 12-well plates were fixed with 4% paraformaldehyde for 15 minutes at room temperature. Cells were then permeabilized with 0.5% Triton X-100 for 10 minutes at room temperature. Three micromolar (3 μM, the manufacturer's recommended concentration) DRAQ7 or 10 μM Dye No. 7, 13, or 15 were added to the fixed and permeabilized cells in 1×PBS and incubated for 5 minutes at room temperature. The dye/PBS solution was removed and replaced with fresh 1×PBS. Fluorescence was observed using an epifluorescence microscope with the CY5 filter (FIG. 3).

HeLa cells [2] = test: Staining live cells with Dye No. 1 (fluorescence microscopy); details: live adherent HeLa cells; 5 μM DRAQ5 or 10 μM Dye No. 1 in 1× PBS, 37° C., 5 minutes; CY5 filter
Method: Live, adherent HeLa cells grown in 12-well plates were treated with either 5 μM DRAQ5 or 10 μM of Dye No. 1 in 1× phosphate buffered saline (PBS). Cells were incubated at 37° C. for 5 minutes. Fluorescence was observed using an epifluorescence microscope with the CY5 filter.

HeLa cells [3] = test: Toxicity approximately 18 hours after staining (bright-field microscopy); details: live HeLa cells, 5 μM DRAQ5 or 20 μM Dye No. 1, 5 minutes at 37° C., then approximately 18 hours in fresh medium
Method: Dark spots are indicative of dead cells.
Live HeLa cells were treated with either 5 μM DRAQ5 or 20 μM Dye No. 1 in 1×PBS for 5 minutes at 37° C. The dye/PBS solution was removed and replaced with fresh Dulbecco/Vogt modified Eagle's minimal essential medium (DMEM) supplemented with bovine growth serum (BGS). The cells were incubated at 37° C. for approximately 18 hours, and observed under bright-field at 10× magnification (FIG. 2).

HeLa cells [4] = test: Normalizing or counting cell number; details: HeLa cells seeded at several densities, fixed, permeabilized, stained one hour at room temperature; LI-COR Odyssey
Method: HeLa cells were counted/normalized using Dye No. 1. HeLa cells were seeded in 96-well—lates at several densities per well (as indicated on the x-axis of FIG. 7). After 24 hours, cells were fixed, permeabilized, and stained with the indicated dyes for one hour at room temperature according to the protocol provided by the supplier of the DRAQ5/Sapphire700 system. Fluorescence was quantitated using a LI-COR Odyssey system. HeLa cells seeded at 25,000 cells were confluent at the time of the assay.

HeLa cells [5] = test: Staining of live (unfixed) HeLa cultures; selective staining of dead cells; details: 1 uL of 500 uM dye stock in 100 uL medium, five minutes, room temperature
Method: HeLa cells were seeded at a density of 2×10^4 cells in 100 uL culture medium per well in tissue culture treated, optical bottom, black 96-well plates. One day after seeding, 1 uL of 500 uM dye stock in DMSO was added directly to the culture medium (100 uL) and mixed by trituration. The cells were incubated at room temperature for five minutes. The culture medium containing dye was removed and replaced by 100 uL phosphate buffered saline. Cellular fluorescence was imaged using an the Cy5 filter set of an Olympus IX71 epifluorescence microscope and a Q-Imaging Retiga 2000R Fast 1394 mono camera (FIG. 5). […] Probes that can selectively detect dead cells are useful in cell viability assays, which are widely practiced in drug screening.

rat skeletal muscle = test: Staining of tissue sections with Dye No. 7; details: acetone-fixed frozen sections of rat skeletal muscle; 10 uM, five minutes, room temperature
Method: Acetone-fixed frozen sections of rat skeletal muscle were purchased from Biochain Institute Inc. (Hayward, Calif.). Sections were rinsed in phosphate buffered saline and stained with 10 uM Dye No. 7 and 5 units/mL CF488A-phalloidin (Biotium Inc, Hayward, Calif.) for five minutes at room temperature. Sections were rinsed twice in phosphate buffered saline and mounted with EverBrite mounting medium (Biotium, Inc, Hayward, Calif.). Tissue fluorescence was imaged using the FITC and Cy5 filter sets of an Olympus IX71 epifluorescence microscope and a Q-Imaging Retiga 2000R Fast 1394 mono camera (FIG. 4).

Structure (SMILES) | nuclear staining specificity in fixed and permeabilized cells (HeLa cells [1]) | nuclear staining of live cells (HeLa cells [2]) | toxicity (cell death) after staining (HeLa cells [3]) | fluorescence versus number of cells stained (HeLa cells [4]) | staining of live versus dead cells in live (unfixed) culture (HeLa cells [5]) | nuclear staining specificity in tissue (rat skeletal muscle)
CC(=N)NCCNc1ccc(O)c2c1C(=O)c1c(O)ccc(NCCNC(C)=N)c1C2=O [Dye No. 15] | much more specific in nuclear staining than Draq7; also recorded: stained cell nuclei specifically | – | – | – | – | –
O=C1c2c(O)ccc(NCCNC3=NCCN3)c2C(=O)c2c(O)ccc(NCCNC3=NCCN3)c21 [Dye No. 13] | much more specific in nuclear staining than Draq7 | – | – | – | – | –
CN(C)CCNc1ccc(O)c2c1C(=O)c1c(O)ccc(NCCN(C)C)c1C2=O [Draq5, reference compound] | – | stained the nuclei of live cells with high specificity; also recorded: stained the nuclei of live cells specifically | more cell death than that with Dye No. 1 | – | – | –
CN(C)CCNc1ccc(O)c2c1C(=O)c1c(O)ccc(NCCNC(=O)C3CCCN3)c1C2=O (centres unmarked) [Dye No. 1] | – | stained the nuclei of live cells with high specificity; also recorded: stained the nuclei of live cells specifically | caused fewer cell deaths than Draq5 even at a much higher concentration; also recorded: much less toxic than Draq5 | linear with the number of cells stained | stained the nuclei of all cells | –
CN(C)CCNc1ccc(O)c2c1C(=O)c1c(O)ccc(NCCNC(=N)CCCCC(=N)NCCNc3ccc(O)c4c3C(=O)c3c(O)ccc(NCCN(C)C)c3C4=O)c1C2=O [Dye No. 7] | much more specific in nuclear staining than Draq7; also recorded: stained cell nuclei specifically | – | – | – | selectively stained the nuclei of dead cells only | excellent nuclear specificity
